Measured values: patent US11912970B2, “Universal microfluidic culture system to analyze and control cell dynamics” (The University of Chicago, priority 2017, dated 2024)

Experiments:
[1] = tested on: Hes5-GFP expression in NSCs; assay: NSCs Hes5-GFP expression under sequential ligand inputs (permutation test and decision tree analysis); type: cell-based, mouse; details: for Hes5 expression relative to control: sequential input
Source text: (§1) Murine hematopoietic stem cells (HSC) are isolated by FACSAria III flow cytometer (BD Biosciences) as Lin−/c-Kit+/Sca-1+/CD48−/CD150+/CD34− (lineage, Lin: CD3e/CD11b/CD19/CD41/B220/Gr-1/Ter-119), which are approximately 50% pure HSCs. Macrophage colony-stimulating factor (M-CSF), a myeloid cytokine released during infection and inflammation, is employed to induce HSCs differentiation. Human CD34+ cells were isolated from mononuclear cells using EasySepTM human CD34 positive selection kit (Stemcell Technologies, Vancouver, BC, Canada). CD34+CD38−CD45RA−CD90+CD49f+ HSCs were sorted using a FACSAria III flow cytometer (BD Biosciences). Pro- and anti-inflammatory cytokines including TNF, IFN[…], IL-6, IP10 and MCP-1 are introduced into the cellular environment as single ligand and in combination. Embryonic NSCs with Hes-GFP and Dcx-RFP reporters were isolated at embryonic day 13.5 from a transgenic mice carrying Hes-GFP and Dcx-RFP using standard protocol (Woo, et al., 2009; Basak, et al., 2007). The resulting primary cells were verified to carry both Hes5-GFP and Dcx-RFP after isolation and allowed to grow for few passages before use in the experiments (Giachino, et al., 2009). NSCs were cultured as neurospheres in culture media (DMEM/F12+Glutamax (Gibco No:31331-028); 10 U/ml penicillin; 10 ug/ml Streptomycin; B27 supplement (1:50); FGF growth factor 0.02 ug/ml). As NSCs are sensitive to environmental variations, cell handling protocol before loading into the chip is examined systematically (including dissociation, FACS sorting, etc.). To obtain the optimal results, NSCs spheres are collected and loaded into the chip 24 hours after fresh dissociation wherein each sphere contains ˜7 to 10 cells. […]
(§2) For image acquisition, a Nikon Ti-ECLIPSE microscope with an automated translation stage and a digital CMOS camera (ORCA-Flash 4.0, Hamamatsu, Japan) was used. […] Bright field and fluorescence images were acquired and analyzed using a customized MATLAB program (Mathworks, […]). The algorithm extracts single cell traces including position, nuclear and cytoplasm fluorescence level. For example, the 3T3 cell nuclear area in each image is identified via the fluorescent nuclear marker GFP, and then the mean value of the nuclear intensity of the p65-DsRed marker is measured, and plotted as a function of time.
(§3) To investigate the role of combinatorial or temporal ordering of signals in NSC differentiation, the inventors cultured NSCs under combinatorial and sequential applications of the six regulatory ligands (FIG. 8A, FIGS. 22 and 23). […] The inventors measured the ratio of the ligand-treated cells to untreated control for cell number and Hes5-GFP expression intensity. […] Multiple experiments were repeated resulting in nearly 3000 dynamic cultures analyzed. […]

[2] = tested on: NSCs; assay: NSCs proliferation (cell number) under sequential ligand inputs (permutation test and decision tree analysis); type: cell-based, mouse; details: sequential input
Source text: as §1, §2, §3

[3] = tested on: NSCs; assay: NSCs proliferation (cell number) under combinatorial ligand inputs (permutation test and decision tree analysis); type: cell-based, mouse; details: ligands in isolation or as a pair (synergy)
Source text: (§4) Murine hematopoietic stem cells (HSC) are isolated by FACSAria III flow cytometer (BD Biosciences) as Lin−/c-Kit+/Sca-1+/CD48−/CD150+/CD34− (lineage, Lin: CD3e/CD11b/CD19/CD41/B220/Gr-1/Ter-119), which are approximately 50% pure HSCs. Macrophage colony-stimulating factor (M-CSF), a myeloid cytokine released during infection and inflammation, is employed to induce HSCs differentiation. Human CD34+ cells were isolated from mononuclear cells using EasySepTM human CD34 positive selection kit (Stemcell Technologies, Vancouver, BC, Canada). CD34+CD38−CD45RA−CD90+CD49f+ HSCs were sorted using a FACSAria III flow cytometer (BD Biosciences). […]
as §2, with “time. […]” for “time.”

[4] = tested on: NSCs; assay: NSCs cell fate (self-renewal or differentiation) from Hes5 level and cell numbers under sequential stimulation; type: cell-based, mouse; details: for cell fate outcome: sequential input
Source text: (§5) Murine hematopoietic stem cells (HSC) are isolated by FACSAria III flow cytometer (BD Biosciences) as Lin−/c-Kit+/Sca-1+/CD48−/CD150+/CD34− (lineage, Lin: CD3e/CD11b/CD19/CD41/B220/Gr-1/Ter-119), which are approximately 50% pure HSCs. Macrophage colony-stimulating factor (M-CSF), a myeloid cytokine released during infection and inflammation, is employed to induce HSCs differentiation. Human CD34+ cells were isolated from mononuclear cells using EasySepTM human CD34 positive selection kit (Stemcell Technologies, Vancouver, BC, Canada). CD34+CD38−CD45RA−CD90+CD49f+ HSCs were sorted using a FACSAria III flow cytometer (BD Biosciences). Pro- and anti-inflammatory cytokines including TNF, IFN[…], IL-6, IP10 and MCP-1 are introduced into the cellular environment as single ligand and in combination. Embryonic NSCs with Hes-GFP and Dcx-RFP reporters were isolated at embryonic day 13.5 from a transgenic mice carrying Hes-GFP and Dcx-RFP using standard protocol (Woo, et al., 2009; Basak, et al., 2007). The resulting primary cells were verified to carry both Hes5-GFP and Dcx-RFP after isolation and allowed to grow for few passages before use in the experiments (Giachino, et al., 2009). NSCs were cultured as neurospheres in culture media (DMEM/F12+Glutamax (Gibco No:31331-028); 10 U/ml penicillin; 10 ug/ml Streptomycin; B27 supplement (1:50); FGF growth factor 0.02 ug/ml). As NSCs are sensitive to environmental variations, cell handling protocol before loading into the chip is examined systematically (including dissociation, FACS sorting, etc.). To obtain the optimal results, NSCs spheres are collected and loaded into the chip 24 hours after fresh dissociation wherein each sphere contains ˜7 to 10 cells. To avoid potential artifacts due to prolonged in vitro culture, only NSCs within 10 passages were used in the study.
To investigate the role of combinatorial or temporal ordering of signals in NSC differentiation, the inventors cultured NSCs under combinatorial and sequential applications of the six regulatory ligands (FIG. 8A, FIGS. 22 and 23). For each independent NSC culture on the chip, the inventors introduced either one ligand each day (sequential inputs), or a combination of the selected ligands over a six-day period (combinatorial inputs). The inventors measured the ratio of the ligand-treated cells to untreated control for cell number and Hes5-GFP expression intensity. Each chip experiment consisted of 63 combinatorial and 720 sequential stimulation experiments, with duplicates (FIG. 8B). Multiple experiments were repeated resulting in nearly 3000 dynamic cultures analyzed. The inventors subjected all experimental outputs of NSC cell numbers and Hes5 expression to regression and classification tree analyses. […]

[5] = tested on: human HSCs; type: cell-based; details: TNF with other participating cytokines
Protocol: FIG. 3C depicts a chart of long-term culture and TNF stimulation of human hematopoietic stem cells (HSCs). Cells were cultured on the microfluidic device in the absence of TNF (control) and 1 ng/ml TNF, for up to 5 days. […] N indicates cell numbers per chamber. […] D represents dynamic cytokine inputs, daily variation between 0.1 and 10 ng/ml.
Besides being a signaling protein involved in systemic inflammation, TNF-alpha is also widely employed to mimic the post-transplantation signaling environment (Mohabbat, et al., 2012). To mimic clinical hematopoietic stem cell transplantation (HSCT), different doses of TNF-alpha are directed to designated culture chambers housing HSCs by programmed medium exchange procedures. […] In both cases, cells proliferate at a similar, if not higher, rate than those in bulk experiments in traditional culture dishes.
as §4, with “Canada).” for “Canada). CD34+CD38−CD45RA−CD90+CD49f+ HSCs were sorted using a FACSAria III flow cytometer (BD Biosciences).”

[6] = tested on: Hes5-GFP expression in NSCs; assay: NSCs Hes5 expression under combinatorial ligand inputs (permutation test and decision tree analysis); type: cell-based, mouse; details: combinatorial input; for Hes5 expression, mean ratio relative to control: decision tree
Source text: as §5
For image acquisition, a Nikon Ti-ECLIPSE microscope with an automated translation stage and a digital CMOS camera (ORCA-Flash 4.0, Hamamatsu, Japan) was used. The stage and image acquisition was controlled via the NIS Elements software. Bright field and fluorescence images were acquired and analyzed using a customized MATLAB program (Mathworks, […]). The algorithm extracts single cell traces including position, nuclear and cytoplasm fluorescence level. For example, the 3T3 cell nuclear area in each image is identified via the fluorescent nuclear marker GFP, and then the mean value of the nuclear intensity of the p65-DsRed marker is measured, and plotted as a function of time.
To investigate the role of combinatorial or temporal ordering of signals in NSC differentiation, the inventors cultured NSCs under combinatorial and sequential applications of the six regulatory ligands (FIG. 8A, FIGS. 22 and 23). For each independent NSC culture on the chip, the inventors introduced either one ligand each day (sequential inputs), or a combination of the selected ligands over a six-day period (combinatorial inputs). The inventors measured the ratio of the ligand-treated cells to untreated control for cell number and Hes5-GFP expression intensity. Each chip experiment consisted of 63 combinatorial and 720 sequential stimulation experiments, with duplicates (FIG. 8B). Multiple experiments were repeated resulting in nearly 3000 dynamic cultures analyzed. The inventors subjected all experimental outputs of NSC cell numbers and Hes5 expression to regression and classification tree analyses. NSCs' cellular states were categorized into two groups: differentiation (with decreased Hes5 level and cell numbers) and self-renewal (with increased Hes5 level and cell numbers) (FIG. 8D).
In this work, the inventors use decision tree analysis to generate descriptive and predictive models which map measurements about cell phenotypic features (i.e., cell count and Hes5-GFP expression) to experimental conditions (i.e., sequential and combinatorial application of six regulatory ligands) (Breiman, 1984). […]

[7] = tested on: Hes5-GFP expression in NSCs; assay: NSCs Hes5 level with sole presence of one ligand, on-chip culture; type: cell-based, mouse
Protocol: FIG. 6B depicts a histogram of Hes5-GFP expression in NSCs before (red) and after (black) one week culture with 100 ng/ml PDGF. High levels of Hes5 in NSCs indicate maintenance of stem cell state, while reduced Hes5 indicates progress towards differentiation.
Murine hematopoietic stem cells (HSC) are isolated by FACSAria III flow cytometer (BD Biosciences) as Lin−/c-Kit+/Sca-1+/CD48−/CD150+/CD34− (lineage, Lin: CD3e/CD11b/CD19/CD41/B220/Gr-1/Ter-119), which are approximately 50% pure HSCs. Macrophage colony-stimulating factor (M-CSF), a myeloid cytokine released during infection and inflammation, is employed to induce HSCs differentiation. […]
as §2

[8] = tested on: NF-κB in 3T3 cells; assay: TNF-alpha induced NF-κB activation in 3T3 fibroblasts on chip; type: cell-based, mouse
Source text: The inventors took advantage of the long-term stable culture capability of the device and extended TNF-alpha induced NF-κB activation study in 3T3 fibroblasts for up to a week. The response of 3T3 cells to TNF-alpha stimulation is characterized by the nuclear translocation of transcription factor NF-κB, and visualized through automated fluorescence imaging (Kellogg, et al., 2015). Both single cells and a population of cells were successfully maintained in the present culture chambers, and were stimulated with series of TNF-alpha concentrations (0.001 to 100 ng/ml), which were simultaneously generated on-chip. […]
as §2

Substance: EGF: signaling ligand whose receptor is highly expressed during mouse forebrain development (NSYPGCPSSYDGYCLNGGVCMHIESLDSYTCNCVIGYSGDRCQTRDLRWWELR; not fully specified; Epidermal growth factor; UniProt P01132 977-1029, looked up)
- Hes5 expression relative to control ([1]; ligand added at day 1): 86.8 % of the control
- cell number raised by a factor ([2]; CXCL added at day 1, ligand added at day 2): 1.19 factor
- cell number raised by a factor ([2]; Jagged added at day 1, ligand added at day 2): 1.38 factor
- effect on cell number ([2]; ligand added at day 1 alone): does not introduce significant increase of cell number
- increased cell number [3]: 60%
- Hes5 expression ([4]; six-ligand sequence, ligand application moved to day 6): significant reduction in Hes5 expression
- Hes5 expression and cell numbers ([4]; six-ligand sequence, ligand delivered on day 2): high Hes5 expression levels and unchanged cell numbers

Substance: IFNγ: cytokine combined with TNF on human HSCs
- effect on TNF induced cell death [5]: neutralize TNF induced cell death

Substance: PDGF
- Hes5 expression outcome ([1]; decision tree, ligand present on the 1st day of culture): high Hes5 expression levels
- Hes5 expression relative to control ([1]; DLL added at day 1, ligand applied at day 2): 89.2 % of the control level
- Hes5 expression relative to control ([1]; ligand added at day 1): 126.6 % of the control
- cell number relative to control ([2]; ligand added at day 1): 85.4 % of the control
- Hes5 expression, mean ratio relative to control ([6]; PDGF present, without DLL): 1.22
- Hes5 expression, mean ratio relative to control ([6]; PDGF present, without DLL, CXCL): 1.37
- Hes5 expression, mean ratio relative to control ([6]; PDGF present, without DLL, CXCL or EGF): 1.56
- Hes5 expression, mean ratio relative to control ([6]; ligand present): ≥ 1.11
- increase of Hes5 expression by a factor ([6]; permutation test): 1.06 factor
- Hes5 expression relative to control ([6]; permutation test, combined with DLL): 99.3 % of the control level
- increase of Hes5 level from its initial value [7]: around 25%
- cell fate outcome ([4]; DLL in day-1, ligand moved to day-2): promoting differentiation
- cell fate outcome ([4]; ligand at day 1): NSCs self-renewal

Substance: TNF-alpha
- single cell response to pulse stimulation (NF-κB) ([8]; 0.1 and 0.2 ng/ml, first pulse, single cell level): all cells respond to the first pulse stimulation
- cytoplasm NF-κB level ([8]; prolonged incubation and stimulation for one week): proportional to TNF-alpha concentration
